The target in one assay is Cytochrome P450 2C9 (Homo sapiens, UniProt P11712). The following applies: Potency.
In assay [1] the target is Acyl-homoserine lactone acylase PvdQ (Pseudomonas aeruginosa (strain LESB58), UniProt Q9I194). As to the kind of experiment: P. aeruginosa PvdQ acylase inhibitors, dose response, biochemical, fluorescence, plate reader and imaging, cherry-picks (AID 493231).
Another assay addresses T1, Aspartyl aminopeptidase (Plasmodium falciparum 3D7, UniProt Q8I2J3).
T1 sequence (Q8I2J3 whole entry): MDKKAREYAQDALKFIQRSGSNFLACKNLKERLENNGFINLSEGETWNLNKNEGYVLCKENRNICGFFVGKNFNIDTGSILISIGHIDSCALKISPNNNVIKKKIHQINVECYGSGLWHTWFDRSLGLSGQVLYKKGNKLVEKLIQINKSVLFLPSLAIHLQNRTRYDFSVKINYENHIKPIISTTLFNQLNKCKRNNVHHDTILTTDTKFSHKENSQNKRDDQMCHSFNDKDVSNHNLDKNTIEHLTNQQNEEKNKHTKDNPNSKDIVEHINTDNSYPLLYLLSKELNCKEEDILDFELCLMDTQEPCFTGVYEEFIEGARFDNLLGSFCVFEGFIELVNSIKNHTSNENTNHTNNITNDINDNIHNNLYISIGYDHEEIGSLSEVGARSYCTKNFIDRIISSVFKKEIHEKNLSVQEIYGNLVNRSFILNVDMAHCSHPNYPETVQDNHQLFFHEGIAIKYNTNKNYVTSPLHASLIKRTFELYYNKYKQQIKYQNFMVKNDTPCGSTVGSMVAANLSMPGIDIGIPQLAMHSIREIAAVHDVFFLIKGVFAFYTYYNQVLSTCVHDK

The target of a further assay is Procathepsin L (Homo sapiens, UniProt P07711).
Procathepsin L, sequence (P07711 whole entry): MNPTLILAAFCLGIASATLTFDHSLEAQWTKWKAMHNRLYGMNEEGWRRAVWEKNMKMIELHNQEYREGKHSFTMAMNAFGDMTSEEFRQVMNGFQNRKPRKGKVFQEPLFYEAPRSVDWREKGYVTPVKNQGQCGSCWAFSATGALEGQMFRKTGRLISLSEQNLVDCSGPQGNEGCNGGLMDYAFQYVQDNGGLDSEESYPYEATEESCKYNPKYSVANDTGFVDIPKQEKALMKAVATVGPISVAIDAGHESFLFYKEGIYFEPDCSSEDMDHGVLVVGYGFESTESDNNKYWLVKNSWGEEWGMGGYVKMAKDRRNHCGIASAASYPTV
For assay [2], the target named is Lysosomal acid glucosylceramidase (Homo sapiens, UniProt P04062). As to the kind of experiment: Dose response cell-based high throughput screening assay to identify enhancers of beta-glucosidase activity. [Related pubchem assays: 784 ]. The class given is functional.
Lysosomal acid glucosylceramidase, sequence (P04062 whole entry): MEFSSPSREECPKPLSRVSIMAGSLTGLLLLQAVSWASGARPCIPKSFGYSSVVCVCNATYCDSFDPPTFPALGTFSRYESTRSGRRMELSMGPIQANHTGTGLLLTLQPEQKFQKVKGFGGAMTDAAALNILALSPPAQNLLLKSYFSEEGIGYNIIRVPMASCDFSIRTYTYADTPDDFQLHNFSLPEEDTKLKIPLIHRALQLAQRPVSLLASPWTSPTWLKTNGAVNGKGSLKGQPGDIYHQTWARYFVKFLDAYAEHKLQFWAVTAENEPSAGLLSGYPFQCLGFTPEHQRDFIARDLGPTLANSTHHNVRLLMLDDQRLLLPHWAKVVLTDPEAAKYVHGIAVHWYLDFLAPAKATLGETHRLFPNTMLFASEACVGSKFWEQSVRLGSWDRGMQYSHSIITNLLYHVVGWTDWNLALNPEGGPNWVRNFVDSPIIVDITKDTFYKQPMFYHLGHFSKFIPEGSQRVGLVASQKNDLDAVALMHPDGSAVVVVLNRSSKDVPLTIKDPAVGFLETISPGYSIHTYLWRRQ
The nature of assay [3]: inhibitors of firefly luciferase expression or activity, dose response, H4 neuroglioma cells, luminescence (AID 1990). The class given is functional, cell-based.
The nature of assay [4]: luciferase reporter signal reduction – luminescence, H4-C neuroglioblastoma cells, dose response (AID 2458).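 Further: H4 neuroglioblastoma cells stably carrying a luciferase reporter gene fusion.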 The class given is functional, cell-based. (In a reporter assay the amount or activity of a reporter protein is the signal.)
A short description of assay [5]: cells. The format is functional, cell-based.
Assay [6] in a line: Luminescence Cell-Based Dose Response HTS to Identify Inhibitors of 5'UTR Stem-Loop Driven Prion Protein mRNA Translation in H4 Neuroglioblastoma Cells. [Related pubchem assays: 1827 (Project Summary), 1813 (Primary HTS)]. The format is functional.
Assay [7] in a line: inhibitors of SNCA 5'UTR-driven reporter translation, confirmation, H4 neuroglioma cells, luminescence (AID 1988). The format is functional, cell-based.
Assay [8] in a line: inhibitors of SNCA 5'UTR-driven translation, confirmation, luminescence, H4 neuroglioblastoma cells, dose confirmation (AID 2454).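 Further: H4 neuroglioblastoma cells carrying an alpha-synuclein 5'UTR luciferase reporter; potency for inhibition of the luciferase signal.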 The class given is functional, cell-based.
Assay [9] in a line: cells. The class given is functional, cell-based. This is another data set of the same source.
In assay [10] the target is T2, Nuclear receptor subfamily 0 group B member 1 (Homo sapiens, UniProt P51843).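 Further: HEK293T cells transfected with SF-1 and DAX-1 plus StAR promoter luciferase reporter.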
T2 sequence (P51843 whole entry): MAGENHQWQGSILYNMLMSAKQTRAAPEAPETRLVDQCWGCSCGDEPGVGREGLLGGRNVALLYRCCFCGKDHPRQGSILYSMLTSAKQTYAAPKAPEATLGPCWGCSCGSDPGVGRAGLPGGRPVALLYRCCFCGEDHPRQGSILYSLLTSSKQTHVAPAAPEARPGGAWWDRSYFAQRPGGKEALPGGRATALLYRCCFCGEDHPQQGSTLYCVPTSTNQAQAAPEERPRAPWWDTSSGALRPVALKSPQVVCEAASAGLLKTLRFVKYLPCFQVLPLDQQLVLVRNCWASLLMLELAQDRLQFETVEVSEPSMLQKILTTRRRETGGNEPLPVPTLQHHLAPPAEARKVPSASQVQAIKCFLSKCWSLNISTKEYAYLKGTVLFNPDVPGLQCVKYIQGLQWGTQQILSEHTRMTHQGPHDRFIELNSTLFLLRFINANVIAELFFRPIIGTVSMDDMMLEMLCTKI
The class given is functional, cell-based.

For another assay, the target named is Paired box protein Pax-8 (Homo sapiens, UniProt Q06710). The assay is described as follows: inhibitors of PAX8-driven TPO luciferase reporter, dose response, RMG-I cells, cherry-pick (AID 687027).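 Further: luciferase reporter driven by Pax8 target thyroperoxidase promoter measured by SteadyGlo luminescence.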 The class given is functional, cell-based.
Assay [11] deals with Melanin-concentrating hormone receptor 1 (Homo sapiens, UniProt Q99705). The assay is described as follows: Fluorescence-based counterscreen for antagonists of the G-protein coupled receptor 7 (GPR7): cell-based high throughput dose response assay to identify antagonists of the melanin-concentrating hormone receptor 1 (MCHR1). The class given is functional.
Melanin-concentrating hormone receptor 1, sequence (Q99705 whole entry): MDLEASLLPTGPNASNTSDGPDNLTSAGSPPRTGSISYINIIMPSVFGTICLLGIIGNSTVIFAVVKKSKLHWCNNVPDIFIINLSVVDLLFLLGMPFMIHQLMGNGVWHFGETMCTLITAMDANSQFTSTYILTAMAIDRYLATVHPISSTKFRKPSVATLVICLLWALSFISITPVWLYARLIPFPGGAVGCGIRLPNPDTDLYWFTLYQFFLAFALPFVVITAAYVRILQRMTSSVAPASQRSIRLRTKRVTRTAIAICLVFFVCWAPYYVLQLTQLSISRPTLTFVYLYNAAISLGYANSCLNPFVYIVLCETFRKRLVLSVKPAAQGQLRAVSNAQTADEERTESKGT
A further assay addresses Cytochrome P450 2C19 (Homo sapiens, UniProt P33261). As to the kind of experiment: qHTS Assay for Inhibitors and Substrates of Cytochrome P450 2C19. [Related pubchem assays: 410 ]. The format is ADME. The following applies: read-out: Potency. For orientation: In qHTS, concentration-response curves come from the screen itself.
Assay [12] has as its system Streptococcus sp. 'group A'. The assay is described as follows: growth inhibition of control SK(-) GAS strain, dose response, counter-screen for streptokinase expression inhibitor project, luminescence, kanamycin, BacTiterGlo, confirmation (AID 1900). The format is functional, organism-based.
The next assay concerns Streptococcus. The assay is described as follows: Group A Streptococcus viability loss, dose response, counter-screen for streptokinase expression inhibitor project, luminescence, BacTiterGlo (AID 1915).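 Further: potency for reduction of bacterial viability or growth.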 The format is functional, organism-based. A general note: A counterscreen serves to expose hits that act by an unwanted route or on another target.
A further assay relates to HEK293. As to the kind of experiment: Fluorescence-based counterscreen for potentiators or agonists of NPY-Y2: cell-based high-throughput dose response assay to identify inhibitors of cyclic nucleotide gated ion channel (CNGC) activity. In this assay, the parental HEK293 cell line transfected with a cyclic-nucleotide gated ion channel (CNGC)-based cAMP sensor is used to measure inhibition of isoproterenol-induced CNGC activity by test compound. The class given is functional. The conditions noted are these: Homo sapiens.

Assay [13] has as its target Neuropeptide Y receptor type 2 (Homo sapiens, UniProt P49146). As to the kind of experiment: Fluorescence-based cell-based high-throughput dose response assay for agonists of NPY-Y2. [Related pubchem assays: 1703 (Screening assay (CNGC inhibitors).), 1359 (Screening assay (NPY-Y2 potentiators or agonists).), 1304 (Screening assay (NPY-Y1 potentiators or agonists).), 1710 (Screening assay (NPY-Y2 agonists).), 1791 (Summary AID.)]. The class given is functional.

Assay [14] addresses Neuropeptide Y receptor type 1 (Homo sapiens, UniProt P25929). As to the kind of experiment: Fluorescence-based counterscreen for agonists of NPY-Y2: cell-based high-throughput dose response assay for agonists of NPY-Y1. The format is functional.
Assay [15] deals with Neurotensin receptor type 1 (Homo sapiens, UniProt P30989). The class given is functional.
Neurotensin receptor type 1, sequence (P30989 whole entry): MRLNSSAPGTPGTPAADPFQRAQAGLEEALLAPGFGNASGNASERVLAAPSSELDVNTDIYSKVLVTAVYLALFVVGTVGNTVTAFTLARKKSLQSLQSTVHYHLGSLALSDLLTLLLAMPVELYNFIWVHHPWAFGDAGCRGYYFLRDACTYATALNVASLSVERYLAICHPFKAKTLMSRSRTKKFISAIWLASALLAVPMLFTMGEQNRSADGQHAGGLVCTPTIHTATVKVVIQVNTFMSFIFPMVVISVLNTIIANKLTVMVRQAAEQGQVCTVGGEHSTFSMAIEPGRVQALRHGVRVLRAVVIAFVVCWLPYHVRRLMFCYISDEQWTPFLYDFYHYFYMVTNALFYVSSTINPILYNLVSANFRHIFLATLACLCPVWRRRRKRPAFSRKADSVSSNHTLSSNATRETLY
Assay [16] addresses T3, Low molecular weight phosphotyrosine protein phosphatase (Homo sapiens, UniProt P24666).
T3 sequence (P24666 whole entry): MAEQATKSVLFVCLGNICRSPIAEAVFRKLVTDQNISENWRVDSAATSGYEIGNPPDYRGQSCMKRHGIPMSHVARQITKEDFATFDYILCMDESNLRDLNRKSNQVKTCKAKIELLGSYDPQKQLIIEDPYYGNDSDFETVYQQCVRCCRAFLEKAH
The class given is functional. The following applies: read-out: IC50_Mean.

For a further assay, the target named is Large T antigen (Simian virus 40, UniProt P03070). The format is functional, Betapolyomavirus macacae.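 Further: Confirmatory-stage PubChem screen for compounds that inhibit SV40 T antigen.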
Large T antigen, sequence (P03070 whole entry): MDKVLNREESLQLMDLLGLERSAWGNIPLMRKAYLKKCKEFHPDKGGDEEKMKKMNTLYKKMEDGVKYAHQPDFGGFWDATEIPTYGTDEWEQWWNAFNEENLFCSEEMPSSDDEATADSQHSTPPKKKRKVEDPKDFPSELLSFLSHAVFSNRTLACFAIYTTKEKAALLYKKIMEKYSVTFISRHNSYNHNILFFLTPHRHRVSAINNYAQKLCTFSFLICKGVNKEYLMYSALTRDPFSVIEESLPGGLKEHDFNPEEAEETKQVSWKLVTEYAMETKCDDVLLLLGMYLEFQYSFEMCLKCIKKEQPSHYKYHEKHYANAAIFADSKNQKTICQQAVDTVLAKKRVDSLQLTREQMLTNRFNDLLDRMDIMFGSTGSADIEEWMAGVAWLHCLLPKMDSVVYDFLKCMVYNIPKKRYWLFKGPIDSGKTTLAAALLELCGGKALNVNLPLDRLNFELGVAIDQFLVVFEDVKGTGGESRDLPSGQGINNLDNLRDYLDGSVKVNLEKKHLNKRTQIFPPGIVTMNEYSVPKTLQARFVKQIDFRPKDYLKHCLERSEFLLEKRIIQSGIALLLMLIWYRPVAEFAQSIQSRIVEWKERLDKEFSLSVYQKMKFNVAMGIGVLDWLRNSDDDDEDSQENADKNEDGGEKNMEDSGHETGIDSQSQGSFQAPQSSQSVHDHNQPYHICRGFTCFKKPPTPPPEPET
Assay [17] in a line: Luminescence Cell-Based Dose Retest to Confirm Inhibitors of Cancer Stem Cells. [Related pubchem assays (depositor defined):AID2717, AID2721]. The class given is functional. The following applies: Homo sapiens.
Assay [18] concerns the target T4, Microphthalmia-associated transcription factor (Homo sapiens, UniProt O75030).
T4 sequence (O75030 whole entry): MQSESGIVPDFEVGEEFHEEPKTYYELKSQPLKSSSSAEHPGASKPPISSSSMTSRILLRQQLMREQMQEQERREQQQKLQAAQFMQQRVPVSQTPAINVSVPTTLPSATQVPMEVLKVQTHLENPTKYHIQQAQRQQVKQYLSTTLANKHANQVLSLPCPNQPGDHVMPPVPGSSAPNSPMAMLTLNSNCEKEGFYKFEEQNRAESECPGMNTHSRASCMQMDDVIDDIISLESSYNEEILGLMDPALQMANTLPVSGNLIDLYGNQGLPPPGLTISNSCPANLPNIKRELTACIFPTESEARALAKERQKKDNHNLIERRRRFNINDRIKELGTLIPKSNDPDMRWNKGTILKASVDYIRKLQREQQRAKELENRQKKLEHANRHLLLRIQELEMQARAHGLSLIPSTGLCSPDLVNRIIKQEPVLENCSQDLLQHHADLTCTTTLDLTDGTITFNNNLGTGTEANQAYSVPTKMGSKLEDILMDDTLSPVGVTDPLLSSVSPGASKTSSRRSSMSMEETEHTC
The assay is described as follows: TRPM1 promoter luciferase signal decrease, dose response, MITF inhibitor project, cell-based, SK-MEL-5, cherry-picked, set 3 (AID 493073).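 Further: SK-MEL-5 melanoma cells with luciferase driven by the MITF target TRPM1 promoter.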 The class given is functional.

Calls of active or inactive are those of the source.

Data on 16 molecules can be found in ChEMBL document CHEMBL1201862, “PubChem BioAssay data set” (2004).

What is called EC50 is the concentration giving half of the maximal effect.
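Wherever IC50 Mean is given: Dose-response confirmation assay measuring inhibition of LMPTP enzyme activity by fluorescence intensity read-out.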

Cytochrome P450 2C9, sequence (P11712 whole entry): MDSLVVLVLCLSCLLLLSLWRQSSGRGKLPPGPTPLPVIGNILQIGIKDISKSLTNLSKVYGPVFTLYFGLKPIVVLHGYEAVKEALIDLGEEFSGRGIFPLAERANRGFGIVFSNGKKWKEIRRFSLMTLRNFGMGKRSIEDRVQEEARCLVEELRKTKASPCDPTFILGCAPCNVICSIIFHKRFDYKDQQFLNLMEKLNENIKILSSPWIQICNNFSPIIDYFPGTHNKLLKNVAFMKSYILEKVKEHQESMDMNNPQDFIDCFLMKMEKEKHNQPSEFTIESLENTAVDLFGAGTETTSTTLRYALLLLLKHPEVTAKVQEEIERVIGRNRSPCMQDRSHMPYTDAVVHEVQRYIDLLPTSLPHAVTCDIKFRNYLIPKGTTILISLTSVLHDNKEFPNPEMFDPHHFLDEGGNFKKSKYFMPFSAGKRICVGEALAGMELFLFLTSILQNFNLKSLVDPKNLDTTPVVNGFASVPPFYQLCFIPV
Acyl-homoserine lactone acylase PvdQ, sequence (Q9I194 24-193 limits assumed): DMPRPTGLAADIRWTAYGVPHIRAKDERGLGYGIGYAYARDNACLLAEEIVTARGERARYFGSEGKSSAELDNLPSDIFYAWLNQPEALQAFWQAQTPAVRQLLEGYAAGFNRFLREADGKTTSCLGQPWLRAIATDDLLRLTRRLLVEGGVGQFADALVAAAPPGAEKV
Acyl-homoserine lactone acylase PvdQ, sequence (Q9I194 217-762 limits assumed): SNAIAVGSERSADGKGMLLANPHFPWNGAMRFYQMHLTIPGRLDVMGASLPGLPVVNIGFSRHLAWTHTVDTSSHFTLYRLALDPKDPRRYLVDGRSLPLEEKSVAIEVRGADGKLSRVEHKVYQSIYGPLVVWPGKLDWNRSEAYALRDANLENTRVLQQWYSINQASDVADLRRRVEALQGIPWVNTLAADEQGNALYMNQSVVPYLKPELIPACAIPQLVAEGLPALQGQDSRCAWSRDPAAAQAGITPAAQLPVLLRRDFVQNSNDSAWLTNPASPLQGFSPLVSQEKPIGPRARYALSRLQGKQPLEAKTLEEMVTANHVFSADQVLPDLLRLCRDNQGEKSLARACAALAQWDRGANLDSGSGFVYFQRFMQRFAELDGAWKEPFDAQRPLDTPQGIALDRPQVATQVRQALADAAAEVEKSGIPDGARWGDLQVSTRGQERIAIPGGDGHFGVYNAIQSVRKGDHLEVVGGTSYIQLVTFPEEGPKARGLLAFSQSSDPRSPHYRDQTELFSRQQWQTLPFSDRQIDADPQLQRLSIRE
Neuropeptide Y receptor type 2, sequence (P49146 whole entry): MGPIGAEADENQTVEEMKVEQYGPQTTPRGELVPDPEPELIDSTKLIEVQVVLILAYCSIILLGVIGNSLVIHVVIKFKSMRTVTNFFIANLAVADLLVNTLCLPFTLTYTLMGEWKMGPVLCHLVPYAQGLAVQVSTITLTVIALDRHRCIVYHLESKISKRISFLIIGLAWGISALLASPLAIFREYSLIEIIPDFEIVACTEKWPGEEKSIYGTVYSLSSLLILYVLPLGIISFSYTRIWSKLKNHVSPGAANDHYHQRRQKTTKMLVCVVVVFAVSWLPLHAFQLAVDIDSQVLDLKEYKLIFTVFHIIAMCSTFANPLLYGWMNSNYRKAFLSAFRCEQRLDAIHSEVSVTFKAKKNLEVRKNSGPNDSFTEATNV
Neuropeptide Y receptor type 1, sequence (P25929 whole entry): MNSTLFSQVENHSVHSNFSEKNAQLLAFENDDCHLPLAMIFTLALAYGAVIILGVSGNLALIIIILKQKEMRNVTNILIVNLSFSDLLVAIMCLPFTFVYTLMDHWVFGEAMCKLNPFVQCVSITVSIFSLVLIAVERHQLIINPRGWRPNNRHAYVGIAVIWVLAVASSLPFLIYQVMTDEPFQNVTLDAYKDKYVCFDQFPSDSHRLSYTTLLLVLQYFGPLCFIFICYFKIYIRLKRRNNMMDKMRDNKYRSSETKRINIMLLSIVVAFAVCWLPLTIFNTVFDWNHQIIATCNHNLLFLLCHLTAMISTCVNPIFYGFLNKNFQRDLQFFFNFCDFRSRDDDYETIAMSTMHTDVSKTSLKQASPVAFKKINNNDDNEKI
Cytochrome P450 2C19, sequence (P33261 whole entry): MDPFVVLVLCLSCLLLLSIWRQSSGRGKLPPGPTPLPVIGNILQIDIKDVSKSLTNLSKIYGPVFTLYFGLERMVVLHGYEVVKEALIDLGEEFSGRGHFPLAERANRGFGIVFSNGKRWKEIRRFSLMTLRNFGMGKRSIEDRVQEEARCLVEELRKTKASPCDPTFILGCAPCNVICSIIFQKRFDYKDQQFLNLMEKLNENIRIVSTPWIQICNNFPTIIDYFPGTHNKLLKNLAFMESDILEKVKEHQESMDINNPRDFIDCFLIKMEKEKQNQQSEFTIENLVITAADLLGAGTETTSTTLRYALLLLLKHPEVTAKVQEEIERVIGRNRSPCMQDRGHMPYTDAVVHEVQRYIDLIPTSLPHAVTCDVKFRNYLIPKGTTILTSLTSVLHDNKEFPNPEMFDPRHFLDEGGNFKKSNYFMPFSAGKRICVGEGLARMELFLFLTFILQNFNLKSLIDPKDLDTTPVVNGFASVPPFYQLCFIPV

For `CCOC(c1cc(OC)cc([N+](=O)[O-])c1OC)C(C)C(OC)[C@@H](C)/C=C/CC(=O)OC` (some centres not stated), the AC50 at Cytochrome P450 2C9 was 2.51 µM (inconclusive).

Take `CC(C)Oc1ccc(CC2CCC(=O)N(C)C2=O)cc1` (configuration not stated): the AC50 in assay [1] was 26.2 µM (active).

As to `O=C(CSc1nn(-c2ccccc2)c(=S)s1)Nn1cnnc1`, the figures for the IC50 at Aspartyl aminopeptidase and against Procathepsin L were 1.61 µM (active) and > 59.6 µM (not active), respectively.

For `CCOc1ccccc1C1C(C(=O)Nc2ccccc2OC)=C(C)Nc2nnnn21` (configuration not stated), in assay [2], the EC50 was > 10 µM (not active).

For `O=C(CSc1nnc[nH]1)Nc1nc(-c2ccccc2)ns1`, the IC50 on Aspartyl aminopeptidase is 0.442 µM (active); at Procathepsin L, > 59.6 µM (not active).

On to `COC(=O)CN1CCN(C(=O)c2ccc(F)cc2)c2ccccc2C1`, for which the EC50 in [2] is given as > 50 µM (not active).

As for `Cc1cc(C)c2nc(SCC(=O)N3CC(=O)Nc4ccccc43)c(C#N)cc2c1`, the EC50 in assay [3] was 0.13 µM (active); in [4], 0.665 µM (active); in the assay “cells [5]”, > 12 µM (not active); in assay [6], 0.217 µM (active); in assay [7], < 0.1 µM (active); in assay [8], > 12 µM (inconclusive). Moreover, the IC50 (in “cells [9]”; in assay [10]) was > 67.5 µM (inactive) throughout. The AC50 on Paired box protein Pax-8 was 1.25 µM (active).

For the molecule `COc1ccccc1C1CC(c2ccc(Cl)cc2)N=C2N=CNN21` (configuration not stated), the IC50 in assay [11] is recorded as 24.5 µM (not active).

As to `C=C(C)C(O)/C=C/c1ccc(OC)cc1` (configuration not stated), the AC50 at Cytochrome P450 2C19 was 0.501 µM (inconclusive); on Cytochrome P450 2C9 it was 2.51 µM (inconclusive).

Consider `CCc1ccc2c(c1)C1(NN=C(c3cccc4ccccc34)S1)C(=O)N2` (configuration not stated), for which the EC50 in assay [3] was 38.5 µM (active); in assay [4] it was 1.25 µM (active); in [12], < 0.06 µM (active); in “cells [5]”, 0.875 µM (active); in assay [6], < 0.1 µM (active); in assay [7], < 0.1 µM (active). Moreover, the EC50 in the assay with Streptococcus is 0.706 µM (active); in assay [8] it was 2.85 µM (inconclusive).

In the case of `CCSc1nnc(NC(=O)CCNS(=O)(=O)c2cc(Br)cnc2N)s1`, the EC50 is 9.32 µM (active) with HEK293, 13.7 µM (not active) in assay [13] and 11.7 µM (not active) in [14].

With `COc1ccc(-c2csc(N3CCN(c4cc(C)nc5ccccc45)CC3)n2)cc1OC`, the EC50 in [15] was 21.4 µM (inactive). In [16], the IC50 is 11.8 µM (active).

Regarding `CC(C)CC(NC(=O)c1ccc(Cl)cc1)C(=O)OCc1cc([N+](=O)[O-])cc2c1OCOC2` (configuration not stated), the 50% effective concentration (EC50) (with HEK293; in [13]; in assay [14]) was > 35.4 µM (not active) each time.

As to `Cc1cc(C(=O)N2CCC(Cc3ccccc3)CC2)ccc1[N+](=O)[O-]`, the IC50 in [11] is given as 16.6 µM (not active).

On to `COc1ccc(-c2ccc(OC(=O)NC3CCS(=O)(=O)C3)cc2)cc1` (configuration not stated), for which the IC50 at Large T antigen was 9.45 µM (active). Besides, the AC50 in assay [1] is 30.7 µM (active).

With `O=C(/C=C\c1ccccc1)NCC(=O)N/N=C/c1ccc(O)cc1O`, the AC50 is 11.1 µM (active) in [17] and 7.99 µM (active) in [18]. Further, the EC50 in assay [15] is 23.1 µM (inactive).
